# From patent US10808007B2, “Desacetoxytubulysin H and analogs thereof” (WILLIAM MARSH RICE UNIVERSITY, priority 2015, dated 2020)
# What was measured:
# Format in all cases: cell-based
# [1] = system: HEK 293T (human embryonic kidney cells); assay: Cytotoxic assay (CellTiter-Glo, 72 h), HEK 293T; settings: Homo sapiens, HEK-293T, 72 h, read-out: IC50 HEK 293T
# [2] = system: MES SA DX (multidrug resistant uterine sarcoma cells); assay: Cytotoxic assay (CellTiter-Glo, 72 h), MES SA DX; settings: Homo sapiens
# [3] = system: NCI-60 human cancer cell line panel; assay: NCI-60 one-dose test; settings: one-dose test (10 μM), NCI-60 panel
# Procedure: A number of the synthesized compounds (i.e. Tb1-Tb23) were evaluated for their activity against a variety of cancer cell lines, namely the NCI-60 human cancer cell line panel representing leukemia, melanoma, lung, colon, brain, ovary, breast, prostate and kidney types of cancer through the In Vitro Cell Line Screening Project (IVCLSP) of the National Cancer Institute (NCI), and a summary of the results is shown in Table 1. […] As there was interest in the activity in certain other cell lines, these and the remaining compounds (Tb1-Tb41, PTb-D42 and PTb-D43) were subjected to further testing against MES SA (uterine sarcoma cells), MES SA DX (multidrug resistant uterine sarcoma cells), and HEK 293T (human embryonic kidney cells). […] Tubulysins are known to be substrates for Pgp pumps (Xiangming, et al., 2013; Kaur, et al., 2006; Szakacs, et al., 2006) as supported by the observed low activities of all tubulysins tested except Tb28, Tb32 and Tb33.
# [4] = system: MES SA (uterine sarcoma cells); assay: Cytotoxic assay (CellTiter-Glo, 72 h), MES SA; settings: Homo sapiens, MES-SA, 72 h, read-out: IC50 MES SA
Structure (SMILES),IC50 [1] [µM],IC50 [2] [µM],"one dose, mean growth % [3] [%]",IC50 [4] [µM]
"CCC(C)[C@H](NC(=O)CN(C)C)C(=O)N(C)[C@H](C(=O)NC12C3C4C1C1C2C3C41C(=O)N[C@@H](Cc1ccccc1)C[C@H](C)C(=O)OC)C(C)C (stereo in doubt) [Tb18, Methyl (2S,4R)-4-(4-((S)-2-((2S,3S)-2-(2-(dimethylamino)acetamido)-N,3-dimethylpentanamido)-3-methylbutanamido)cubane-1-carboxamido)-2-methyl-5-phenylpentanoate]",> 0.05,> 0.05,98.48,> 0.05
"CCC(C)[C@H](NC(=O)[C@H]1CCCCN1C)C(=O)N(C)[C@H](C(=O)NC12CC(C(=O)N[C@@H](Cc3ccccc3)C[C@H](C)C(=O)OC)(C1)C2)C(C)C (stereo in doubt) [Tb19, Methyl (2S,4R)-4-(3-((S)-2-((2S,3S)—N,3-dimethyl-2-((R)-1-methylpiperidine-2 carboxamido)pentan amido)-3-methylbutanamido)bicyclo[1.1.1]pentane-1-carboxamido)-2-methyl-5-phenylpentanoate]",> 0.05,> 0.05,100.82,> 0.05
"CC[C@@H](C)[C@H](NC(=O)[C@H]1CCCCN1C)C(=O)N(C)[C@H](C(=O)NC12C3C4C1C1C2C3C41C(=O)N[C@@H](Cc1ccccc1)C[C@H](C)C(=O)OC)C(C)C (stereo partly drawn) [Tb17, Methyl (2S,4R)-4-(4-((S)-2-((2S,3S)—N,3-dimethyl-2-((R)-1-methylpiperidine-2-carboxamido)penta-namido)-3-methylbutanamido)cubane-1-carboxamido)-2-methyl-5-phenylpentanoate]",> 0.05,> 0.05,97.37,> 0.05
"COC(=O)[C@@H](C)C[C@H](Cc1ccccc1)NC(=O)c1csc([C@@H](C[C@H](C(C)C)N(C)C(=O)[C@@H](NC(=O)C23CC(NC(C)=O)(C2)C3)C2CC2)OC(C)=O)n1 [Tb22, Methyl (2S,4R)-4-(2-((1R,3R)-3-((S)-2-(3-acetamidobicyclo[1.1.1]pentane-1-carboxamido)-2-cyclopropyl-N-methylacetamido)-1-acetoxy-4-methylpentyl)thiazole-4-carboxamido)-2-methyl-5-phenylpentanoate]",> 0.05,> 0.05,49.38,> 0.05
